Data published in patent EP4624465A1, “COMPOUND SERVING AS DDR1 KINASE INHIBITOR, AND MEDICINE” (Nippon Shinyaku Co., Ltd., priority 2022, dated 2024).
Where a name gives a salt, the structure may show the parent alone.

Assays:
[1] = test system: anti-glomerular basement membrane antibody-induced nephritis model; assay: In vivo drug efficacy in an anti-glomerular basement membrane antibody-induced nephritis model (urinary albumin); settings: twice daily for 7 days, WKY/NCrlCrlj rats, antibody untreated group = 0%, medium-treated group = 100%
DDR1 kinase [2] = target: T1, DDR1 kinase (Homo sapiens, UniProt Q08345); assay: Evaluation of DDR1 kinase inhibition in DDR1-expressing U2OS cells (type I collagen stimulation, PathHunter detection); format: cell-based; parameters: host or cells: U2OS; settings: type I collagen 50 µg/mL stimulation, duplicate, read-out: DDR-1 IC50
Target sequence in this assay (Q08345 19-913): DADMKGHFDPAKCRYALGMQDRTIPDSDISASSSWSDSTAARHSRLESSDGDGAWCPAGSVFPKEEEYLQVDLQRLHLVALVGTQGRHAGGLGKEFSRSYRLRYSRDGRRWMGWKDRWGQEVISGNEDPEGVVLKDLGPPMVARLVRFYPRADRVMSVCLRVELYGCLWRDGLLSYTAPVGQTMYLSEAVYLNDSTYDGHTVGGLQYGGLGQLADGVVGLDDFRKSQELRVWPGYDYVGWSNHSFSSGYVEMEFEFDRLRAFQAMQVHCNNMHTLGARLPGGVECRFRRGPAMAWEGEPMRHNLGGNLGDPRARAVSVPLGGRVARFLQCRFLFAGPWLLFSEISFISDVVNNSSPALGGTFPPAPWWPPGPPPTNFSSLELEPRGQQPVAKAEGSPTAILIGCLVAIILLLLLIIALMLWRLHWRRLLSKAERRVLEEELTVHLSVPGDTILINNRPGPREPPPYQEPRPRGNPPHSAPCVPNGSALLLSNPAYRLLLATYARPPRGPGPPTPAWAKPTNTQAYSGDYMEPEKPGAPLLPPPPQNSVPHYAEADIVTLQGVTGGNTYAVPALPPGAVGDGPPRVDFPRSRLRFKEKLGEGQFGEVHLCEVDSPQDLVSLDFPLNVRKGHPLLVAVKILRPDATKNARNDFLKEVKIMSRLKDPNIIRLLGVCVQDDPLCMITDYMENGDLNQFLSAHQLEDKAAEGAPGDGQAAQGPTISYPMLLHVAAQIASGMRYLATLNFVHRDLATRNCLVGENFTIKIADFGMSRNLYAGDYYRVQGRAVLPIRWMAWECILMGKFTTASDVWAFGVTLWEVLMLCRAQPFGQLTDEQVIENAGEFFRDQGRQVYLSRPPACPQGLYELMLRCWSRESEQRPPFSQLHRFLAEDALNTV

DDR1 kinase [3] = target: T1, DDR1 kinase; assay: Evaluation of DDR1 kinase inhibition (LANCE Ultra TR-FRET kinase assay); format: biochemical; parameters: purchased Carna Biosciences 08-113; settings: DDR1 protein 0.5 nM, LANCE Ultra ULight-poly GAT substrate, 2 hours at room temperature, duplicate; read-out: DDR-1 IC50
Target sequence in this assay (Q08345 19-876 isoform Q08345-2 limits assumed): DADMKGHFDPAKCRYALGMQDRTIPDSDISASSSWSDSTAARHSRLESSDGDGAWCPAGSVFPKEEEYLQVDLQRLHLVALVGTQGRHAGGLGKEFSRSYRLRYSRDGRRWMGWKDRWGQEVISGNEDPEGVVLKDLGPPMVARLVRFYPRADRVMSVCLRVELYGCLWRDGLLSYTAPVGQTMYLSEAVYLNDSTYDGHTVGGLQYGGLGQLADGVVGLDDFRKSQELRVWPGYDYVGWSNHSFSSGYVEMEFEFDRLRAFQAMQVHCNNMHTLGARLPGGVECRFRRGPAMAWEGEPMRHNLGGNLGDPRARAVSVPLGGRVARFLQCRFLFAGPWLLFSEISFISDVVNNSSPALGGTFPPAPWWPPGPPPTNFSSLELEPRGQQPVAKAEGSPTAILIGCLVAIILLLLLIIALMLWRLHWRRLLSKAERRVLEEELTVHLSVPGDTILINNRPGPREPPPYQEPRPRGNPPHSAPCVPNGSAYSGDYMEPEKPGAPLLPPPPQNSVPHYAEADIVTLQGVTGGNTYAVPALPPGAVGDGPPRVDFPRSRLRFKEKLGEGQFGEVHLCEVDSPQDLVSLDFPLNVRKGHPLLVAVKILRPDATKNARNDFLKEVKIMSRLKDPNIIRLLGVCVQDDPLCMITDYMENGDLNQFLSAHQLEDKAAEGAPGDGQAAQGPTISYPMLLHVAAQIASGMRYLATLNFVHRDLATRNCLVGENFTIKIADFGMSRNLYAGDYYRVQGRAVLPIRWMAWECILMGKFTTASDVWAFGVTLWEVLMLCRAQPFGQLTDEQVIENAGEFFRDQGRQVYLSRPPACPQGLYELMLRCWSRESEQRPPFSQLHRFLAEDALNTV

| Structure (SMILES) | IC50 (DDR1 kinase [2]) [nM] | IC50 (DDR1 kinase [3]) [nM] | Amount (%) of albumin in urine compared with medium-treated group ([1]; Dose 100 mg/kg) [%] | Amount (%) of albumin in urine compared with medium-treated group ([1]; Dose 200 mg/kg) [%] |
| --- | --- | --- | --- | --- |
| Nc1cc(C(=O)N2CC(c3nn(CC(=O)N4CCC[C@H]4C(F)(F)F)c4ccccc34)C2)c(F)cn1 [Compound E-3, 2-{3-[1-(2-amino-5-fluoropyridine-4-carbonyl)azetidin-3-yl]-1H-indazol-1-yl}-1-[(2S)-2-(trifluoromethyl)pyrrolidin-1-yl]ethan-1-one] | 53 | 0.4 | 67 | – |
| Nc1cc(C(=O)N2CC(c3nn(CC(=O)N4CCC[C@H]4C(F)(F)F)c4ccc(Cl)cc34)C2)c(F)cn1 [Compound E-206, 2-{3-[1-(2-amino-5-fluoropyridine-4-carbonyl)azetidin-3-yl}-5-chloro-1H-indazol-1-yl}-1-[(2S)-2-(trifluoromethyl)pyrrolidin-1-yl]ethan-1-one] | 6 | 1.6 | – | – |
| Nc1ncc(C(=O)N2CC(c3nn(CC(=O)N4CCC[C@H]4C(F)(F)F)c4cc(F)cc(F)c34)C2)o1 [Compound E-105, 2-{3-[1-(2-amino-1,3-oxazole-5-carbonyl)azetidin-3-yl]-4,6-difluoro-1H-indazol-1-yl}-1-[(28)-2-(trifluoromethyl)pyrrolidin-1-yl]ethan-1-one] | 370 | 79 | – | – |
| Nc1cc(C(=O)N2CC(c3nn(Cc4cn(Cc5ccccc5)nn4)c4cccc(F)c34)C2)ccn1 [Compound E-35, 4-(3-{1-[(1-benzyl-1H-1,2,3-triazol-4-yl)methyl]-4-fluoro-1H-indazol-3-yl}azetidine-1-carbonyl)pyridin-2-amine hydrochloride] | 2000 | 31 | – | – |
| Nc1nccc(C(=O)N2CC(c3nn(CC(=O)N4CCO[C@@H](C(F)(F)F)C4)c4ccccc34)C2)c1F [Compound E-194, 2-{3-[1-(2-amino-3-fluoropyridine-4-carbonyl)azetidin-3-yl]-1H-indazol-1-y1}-1-[(2R)-2-(trifluoromethyl)morpholin-4-yl]ethan-1-one] | 370 | 4.8 | – | – |

Further lines, with some results ahead:

| IC50 (DDR1 kinase [2]) [nM] | IC50 (DDR1 kinase [3]) [nM] | Structure (SMILES) | Amount (%) of albumin in urine compared with medium-treated group ([1]; Dose 100 mg/kg) [%] | Amount (%) of albumin in urine compared with medium-treated group ([1]; Dose 200 mg/kg) [%] |
| --- | --- | --- | --- | --- |
| 37 | 1.6 | Cl.Nc1cc(C(=O)N2CC(c3nn(CC(=O)N4CCC[C@H]4C(F)(F)F)c4cc(F)cc(F)c34)C2)ccn1 [Compound E-2, 2-{3-[1-(2-aminopyridine-4-carbonyl)azetidin-3-yl]-4,6-difluoro-1H-indazol-1-yl}-1-[(2S)-2-(trifluoromethyl)pyrrolidin-1-yl]ethan-1-one hydrochloride] | – | 73 |
| 180 | 5.2 | Cc1nc(N)sc1C(=O)N1CC(c2nn(CC(=O)N3CCC[C@H]3C(F)(F)F)c3cc(F)cc(F)c23)C1 [Compound E-106] | – | – |
| 390 | 21 | CN(C(=O)Cn1nc(C2CN(C(=O)c3cc(N)ncc3F)C2)c2ccccc21)C1COC1 [Compound E-254, 2-{3-{1-(2-amino-5-fluoropyridine-4-carbonyl)azetidin-3-yl]-1H-indazol-1-yl}-N-methyl-N-(oxetan-3-yl)acetamide] | – | – |
| 18 | 5.6 | Nc1ncc(F)c(C(=O)N2CC(c3nn(CC(=O)N4CCC[C@H]4C(F)(F)F)c4ccccc34)C2)n1 [Compound E-22, 2-{3-[1-(2-amino-5-fluoropyrimidine-4-carbonyl)azetidin-3-yl]-1H-indazol-1-yl}-1-[(2S)-2-(trifluoromethyl)pyrrolidin-1-yl]ethan-1-one] | – | – |
